US20140037606A1, “CELL-BASED, ANTI-CANCER VACCINES” (priority 2012, published 2014)

Key:
[1] = tested on: mTORC2-mediated Akt phosphorylation; assay: Activation-induced Akt Ser473 phosphorylation in DCs; assay type: cell-based, mouse
human myeloid DCs = assay: Costimulatory molecule expression in human myeloid DCs by FACS; assay type: cell-based; details: R848 1 μg/mL, inhibitors 100 nM
Procedure: FIG. 3. Pharmacological inhibition of mTOR augments the duration of costimulatory molecule expression in human myeloid DCs. (A) Human myeloid DCs were either unstimulated or stimulated with R848 in the presence or absence of rapamycin (RAP) or KU. CD40 and CD86 expression was analyzed by FACS. Day 4 costimulatory molecule expression from a representative donor (5430) is depicted. (B) DCs were treated as in (A) and analyzed daily by FACS for CD40 and CD86 expression. (C) DCs were treated as in (A) and analyzed for viability at indicated times by FACS analysis of 7-AAD staining. For each treatment, data from 4-6 individual donors is depicted.
Human DC Culture: Human myeloid DCs were isolated from human blood using MACS positive selection beads. In brief, filters from hospital blood donors were generously donated by the CVPH Medical Center in Plattsburgh, N.Y. Blood cells were obtained by reverse flushing filters in sterile HBSS. PBMCs were obtained by centrifugation of blood samples over Ficoll-Paque Plus (density 1.077 g/mL) (GE Healthcare). Myeloid DCs were enriched using the BDCA-1 Positive Selection DC Islation Kit (Miltenyi Bioscience) per the manufacturer's instructions. […] At indicated times, DCs were harvested and analyzed by FACS for maturation markers.

bone marrow-derived DCs [2] = assay: DC viability/lifespan by FACS of 7-AAD staining of CD11c+ cells; assay type: cell-based, mouse; details: treatment alone, no LPS; data not shown
Procedure: (§1) FIG. 1. Inhibition of mTOR expression prolongs DC lifespan and promotes expression of costimulatory molecules CD40 and CD86. (A) DCs were pulsed with Pam2CSK4, LPS, R848, or CpG for 6 hours and then washed and cultured in complete medium. Cell viability was monitored daily by FACS analysis of 7-AAD staining of CD11c^+ cells. (B) Western blot for mTOR and β-actin protein in Luciferase hpRNA (Luc^hp) or mTOR hpRNA (mTOR^hp)-transduced DCs. (C) DCs were stimulated with media alone, LPS, or rapamycin+LPS for 30 minutes. Cells were subsequently fixed and stained for phosphorylated S6 protein as a molecular readout for mTOR activation and analyzed by FACS. (D) Luc^hp and mTOR^hp-transduced DCs were left untreated or stimulated with LPS and monitored daily for cell viability by analysis of 7-AAD staining of CD11c^+ cells. (E) Luc^hp or mTOR^hp DCs were cultured with or without LPS for 24 hours and analyzed by FACS for CD40 and CD86 expression. […]
(§2) FIG. 2. […] Cells were monitored daily for cell viability as described for FIG. 1. […] (B) DCs were unstimulated or stimulated with LPS, RAP+LPS, or KU+LPS and analyzed by FACS 24 hours later for CD40 and CD86 expression. […] (C) DCs were treated as in (B) and analyzed daily by FACS for CD40 and CD86 expression gated on live CD11c^+ cells. […]

bone marrow-derived DCs [3] = assay: Costimulatory molecule expression on DCs by FACS; assay type: cell-based, mouse
Procedure: as §1, §2

Question: Which “activation induced Akt Ser473 phosphorylation” value [1] does the source give for `COc1ccc(-c2ccc3c(N4CCOCC4)nc(N4C[C@@H](C)O[C@@H](C)C4)nc3n2)cc1CO` [KU, KU 0063794] here?
Answer: The value was “inhibited”.

Question: What about the “costimulatory molecule expression (CD40, CD86) in response to R848” value (human myeloid DCs) of the same compound?
Answer: The value was “enhanced”.

Question: What about the “viability of unstimulated DCs” value (bone marrow-derived DCs [2]) of the same compound?
Answer: Its value is “did not impact”.

Question: What about the “duration of expression of CD40 and CD86 in response to LPS” value (bone marrow-derived DCs [3]; analyzed daily, live CD11c+ cells) of the same compound?
Answer: The value was “prolonged”.

Question: And the “percentage of DCs expressing CD40 and CD86” value (bone marrow-derived DCs [3]; during LPS stimulation, 24 hours, inhibitors 100 nM)?
Answer: The value was “increase”.
